The text below walks through data of US20080160009A1, “Inhibiting Cav3 Isoforms and the 25B Splice Varients for the Diagnosis and Treatment of Cancer” (priority 2004, published 2008).

The test system of the experiment is human PC3 prostate cancer cells. The experiment can be described thus: Lifespan of SCID mice inoculated with human PC3 prostate cancer cells. Type of experiment: in vivo.

On to `COc1ccc(CCN2CCC[C@H]2COC(c2ccccc2)c2ccc(Cl)cc2)cc1` (stereo partly shown) [TH-1177], for which the lifespan entry is recorded as “significantly extended the lifespan”.
